# Measurements from patent US12522607B2, “Substituted pyrazolo[3,4-d]pyrimidines as wee-1 inhibitors” (WIGEN BIOMEDICINE TECHNOLOGY (SHANGHAI) CO., LTD., priority 2020, dated 2026).
# What was measured:
# [1] = test system: HT29 cells; assay: Antiproliferative activity against HT29 cells (Cell Titer-Lumi, ATP content); assay type: cell-based; settings: Homo sapiens, HT-29, 72 after compound addition, read-out: HT-29 cells Anti-proliferative activity (IC50 for the inhibition against HT-29 cell growth)
# Procedure: Example 343. Assay for Antiproliferative Activity Against HT29 Cells
# 3000 HT29 cells were seed in a 384-well plate (Fisher 142762). After the cells adhered to the wall overnight, the compounds diluted in a gradient were added. 72 later, Cell Titer-Lumi (Beyotime C0068XL) was added to determine the content of ATP in the cells. The growth of the cells was evaluated, and the IC50 for the inhibition of the compounds against cell growth was calculated.
# [2] = target: T1, Wee-1 kinase (Homo sapiens, UniProt P30291); assay: Inhibitory activity against Wee-1 kinase (Lanthra Screen Wee-1 kinase kit, Tracer 178); assay type: binding; settings: Wee-1 kinase 5 nM, Tracer 178 50 nM, 1 h room temperature
# T1 construct: purchased Invitrogen
# T1 sequence (P30291 whole entry): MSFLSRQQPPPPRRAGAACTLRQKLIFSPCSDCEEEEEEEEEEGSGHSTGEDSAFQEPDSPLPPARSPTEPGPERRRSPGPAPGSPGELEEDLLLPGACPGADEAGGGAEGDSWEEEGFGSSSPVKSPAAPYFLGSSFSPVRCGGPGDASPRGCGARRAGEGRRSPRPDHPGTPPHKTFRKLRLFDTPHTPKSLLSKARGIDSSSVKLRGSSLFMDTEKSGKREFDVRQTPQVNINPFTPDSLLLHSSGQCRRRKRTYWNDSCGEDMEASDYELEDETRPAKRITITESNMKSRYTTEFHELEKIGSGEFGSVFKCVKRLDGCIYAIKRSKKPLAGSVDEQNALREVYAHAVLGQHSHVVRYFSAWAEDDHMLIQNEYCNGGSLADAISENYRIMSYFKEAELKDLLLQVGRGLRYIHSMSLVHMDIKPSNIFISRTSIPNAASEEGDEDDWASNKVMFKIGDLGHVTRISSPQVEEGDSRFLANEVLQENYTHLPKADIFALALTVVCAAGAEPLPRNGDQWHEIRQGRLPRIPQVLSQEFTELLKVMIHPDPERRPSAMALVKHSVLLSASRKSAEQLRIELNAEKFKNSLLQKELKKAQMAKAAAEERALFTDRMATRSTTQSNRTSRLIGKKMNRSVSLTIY
# Procedure: Example 342. Assay for Inhibitory Activity of Compounds Against Wee-1 Kinase
# The inhibitory activity of compounds against Wee-1 kinase was determined by using the Lanthra Screen Wee-1 kinase kit (Invitrogen). 5 μL of the compound diluted in a gradient with DMSO, 5 μL. of Wee-1 kinase (at a final concentration of 5 nM), 5 μL of an Eu-Anti-GST antibody (at a final concentration of 2 nM) mixture and 5 μL of kinase Tracer 178 (at a final concentration of 50 nM) were mixed well. The plate was read after incubation at room temperature for one hour. For comparison with the DMSO solvent control group, IC50 for the inhibition activity of the compounds against Wee-1 kinase was calculated.
Compound,IC50 [1] [nM],IC50 [2] [nM]
C=CCn1c(=O)c2cnc(Nc3cc(C)c(N4CCNCC4)c(F)c3)nc2n1-c1ccc(=O)n(C(C)C)n1 [Compound 55],≤ 1000,≤ 30
C=CCn1c(=O)c2cnc(Nc3cc(C)c(N4CCN(C)CC4)c(F)c3)nc2n1-c1ccc(=O)n(C(C)C)n1 [Compound 56],≤ 1000,≤ 30
C=CCn1c(=O)c2cnc(Nc3cc(C)c(N4CCNCC4)c(Cl)c3)nc2n1-c1ccc(=O)n(C(C)C)n1 [Compound 57],≤ 1000,≤ 30
C=CCn1c(=O)c2cnc(Nc3cc(C)c(N4CCN(C)CC4)c(Cl)c3)nc2n1-c1ccc(=O)n(C(C)C)n1 [Compound 58],≤ 1000,≤ 30
C=CCn1c(=O)c2cnc(Nc3cc(F)c(N4CCNCC4)c(Cl)c3)nc2n1-c1ccc(=O)n(C(C)C)n1 [Compound 59],≤ 1000,≤ 30
C=CCn1c(=O)c2cnc(Nc3cc(F)c(N4CCN(C)CC4)c(Cl)c3)nc2n1-c1ccc(=O)n(C(C)C)n1 [Compound 60],≤ 1000,≤ 30
C=CCn1c(=O)c2cnc(Nc3cc(Cl)c(N4CCNCC4)c(Cl)c3)nc2n1-c1ccc(=O)n(C(C)C)n1 [Compound 61],≤ 1000,≤ 30
C=CCn1c(=O)c2cnc(Nc3cc(Cl)c(N4CCN(C)CC4)c(Cl)c3)nc2n1-c1ccc(=O)n(C(C)C)n1 [Compound 62],≤ 1000,≤ 30
C=CCn1c(=O)c2cnc(Nc3cc(F)c(N4CCNCC4)c(OC)c3)nc2n1-c1ccc(=O)n(C(C)C)n1 [Compound 63],≤ 1000,≤ 30
C=CCn1c(=O)c2cnc(Nc3cc(F)c(N4CCN(C)CC4)c(OC)c3)nc2n1-c1ccc(=O)n(C(C)C)n1 [Compound 64],≤ 1000,≤ 30
C=CCn1c(=O)c2cnc(Nc3cc(Cl)c(N4CCNCC4)c(OC)c3)nc2n1-c1ccc(=O)n(C(C)C)n1 [Compound 65],≤ 1000,≤ 30
C=CCn1c(=O)c2cnc(Nc3cc(Cl)c(N4CCN(C)CC4)c(OC)c3)nc2n1-c1ccc(=O)n(C(C)C)n1 [Compound 66],≤ 1000,≤ 30
C=CCn1c(=O)c2cnc(Nc3cccc(N4CCNCC4)c3)nc2n1-c1ccc(=O)n(C(C)C)n1 [Compound 67],≤ 1000,≤ 30
C=CCn1c(=O)c2cnc(Nc3cccc(N4CCN(C)CC4)c3)nc2n1-c1ccc(=O)n(C(C)C)n1 [Compound 68],≤ 1000,≤ 30
C=CCn1c(=O)c2cnc(Nc3cc(C)cc(N4CCNCC4)c3)nc2n1-c1ccc(=O)n(C(C)C)n1 [Compound 69],≤ 1000,≤ 30
C=CCn1c(=O)c2cnc(Nc3cc(C)cc(N4CCN(C)CC4)c3)nc2n1-c1ccc(=O)n(C(C)C)n1 [Compound 70],≤ 1000,≤ 30
C=CCn1c(=O)c2cnc(Nc3cc(F)cc(N4CCNCC4)c3)nc2n1-c1ccc(=O)n(C(C)C)n1 [Compound 71],≤ 1000,≤ 30
C=CCn1c(=O)c2cnc(Nc3cc(F)cc(N4CCN(C)CC4)c3)nc2n1-c1ccc(=O)n(C(C)C)n1 [Compound 72],≤ 1000,≤ 30
C=CCn1c(=O)c2cnc(Nc3cc(Cl)cc(N4CCNCC4)c3)nc2n1-c1ccc(=O)n(C(C)C)n1 [Compound 73],≤ 1000,≤ 30
C=CCn1c(=O)c2cnc(Nc3cc(Cl)cc(N4CCN(C)CC4)c3)nc2n1-c1ccc(=O)n(C(C)C)n1 [Compound 74],≤ 1000,≤ 30
C=CCn1c(=O)c2cnc(Nc3cc(OC)cc(N4CCNCC4)c3)nc2n1-c1ccc(=O)n(C(C)C)n1 [Compound 76],≤ 1000,≤ 30
C=CCn1c(=O)c2cnc(Nc3ccc(N4CC(N(C)C)C4)cc3)nc2n1-c1ccc(=O)n(C(C)C)n1 [Compound 77],≤ 1000,≤ 30
C=CCn1c(=O)c2cnc(Nc3ccc(N4CC(N(C)C)C4)c(C)c3)nc2n1-c1ccc(=O)n(C(C)C)n1 [Compound 78],≤ 1000,≤ 30
C=CCn1c(=O)c2cnc(Nc3ccc(N4CC(N(C)C)C4)c(OC)c3)nc2n1-c1ccc(=O)n(C(C)C)n1 [Compound 79],≤ 1000,≤ 30
C=CCn1c(=O)c2cnc(Nc3ccc(N4CC(N5CCC5)C4)cc3)nc2n1-c1ccc(=O)n(C(C)C)n1 [Compound 80],1000 to 3000,≤ 30
C=CCn1c(=O)c2cnc(Nc3ccc(N4CC(N5CCC5)C4)c(C)c3)nc2n1-c1ccc(=O)n(C(C)C)n1 [Compound 81],≤ 1000,≤ 30

Compound,IC50 [1] [nM],IC50 [2] [nM]
C=CCn1c(=O)c2cnc(Nc3ccc(N4CC(N5CCC5)C4)c(OC)c3)nc2n1-c1ccc(=O)n(C(C)C)n1 [Compound 82],≤ 1000,≤ 30
C=CCn1c(=O)c2cnc(Nc3ccc(N4CC(N5CCCC5)C4)cc3)nc2n1-c1ccc(=O)n(C(C)C)n1 [Compound 83],≤ 1000,≤ 30
C=CCn1c(=O)c2cnc(Nc3ccc(N4CC(N5CCCC5)C4)c(C)c3)nc2n1-c1ccc(=O)n(C(C)C)n1 [Compound 84],≤ 1000,≤ 30
C=CCn1c(=O)c2cnc(Nc3ccc(N4CC(N5CCCC5)C4)c(OC)c3)nc2n1-c1ccc(=O)n(C(C)C)n1 [Compound 85],≤ 1000,≤ 30
C=CCn1c(=O)c2cnc(Nc3ccc(N4CCC(N5CCC5)CC4)cc3)nc2n1-c1ccc(=O)n(C(C)C)n1 [Compound 86],≤ 1000,≤ 30
C=CCn1c(=O)c2cnc(Nc3ccc(N4CCC(N5CCC5)CC4)c(C)c3)nc2n1-c1ccc(=O)n(C(C)C)n1 [Compound 87],≤ 1000,≤ 30
C=CCn1c(=O)c2cnc(Nc3ccc(N4CCC(N5CCC5)CC4)c(OC)c3)nc2n1-c1ccc(=O)n(C(C)C)n1 [Compound 88],≤ 1000,≤ 30
C=CCn1c(=O)c2cnc(Nc3ccc(N4CCC(N5CCCC5)CC4)cc3)nc2n1-c1ccc(=O)n(C(C)C)n1 [Compound 89],≤ 1000,≤ 30
C=CCn1c(=O)c2cnc(Nc3ccc(N4CCC(N5CCCC5)CC4)c(C)c3)nc2n1-c1ccc(=O)n(C(C)C)n1 [Compound 90],≤ 1000,≤ 30
C=CCn1c(=O)c2cnc(Nc3ccc(N4CCC(N5CCCC5)CC4)c(OC)c3)nc2n1-c1ccc(=O)n(C(C)C)n1 [Compound 91],≤ 1000,≤ 30
C=CCn1c(=O)c2cnc(Nc3ccc(N4CC[C@H](N(C)C)C4)cc3)nc2n1-c1ccc(=O)n(C(C)C)n1 [Compound 92],≤ 1000,≤ 30
C=CCn1c(=O)c2cnc(Nc3ccc(N4CC[C@H](N(C)C)C4)c(C)c3)nc2n1-c1ccc(=O)n(C(C)C)n1 [Compound 93],≤ 1000,≤ 30
C=CCn1c(=O)c2cnc(Nc3ccc(N4CC[C@H](N(C)C)C4)c(OC)c3)nc2n1-c1ccc(=O)n(C(C)C)n1 [Compound 94],≤ 1000,≤ 30
C=CCn1c(=O)c2cnc(Nc3ccc(N4CC[C@@H](N(C)C)C4)cc3)nc2n1-c1ccc(=O)n(C(C)C)n1 [Compound 95],≤ 1000,≤ 30
C=CCn1c(=O)c2cnc(Nc3ccc(N4CC[C@@H](N(C)C)C4)c(C)c3)nc2n1-c1ccc(=O)n(C(C)C)n1 [Compound 96],≤ 1000,≤ 30
C=CCn1c(=O)c2cnc(Nc3ccc(N4CC[C@@H](N(C)C)C4)c(OC)c3)nc2n1-c1ccc(=O)n(C(C)C)n1 [Compound 97],≤ 1000,≤ 30
C=CCn1c(=O)c2cnc(Nc3ccc(N4CCC(N(C)C)CC4)cc3)nc2n1-c1ccc(=O)n(C(C)C)n1 [Compound 98],≤ 1000,≤ 30
C=CCn1c(=O)c2cnc(Nc3ccc(N4CCC(N(C)C)CC4)c(C)c3)nc2n1-c1ccc(=O)n(C(C)C)n1 [Compound 99],≤ 1000,≤ 30
C=CCn1c(=O)c2cnc(Nc3ccc(N4CCC(N(C)C)CC4)c(OC)c3)nc2n1-c1ccc(=O)n(C(C)C)n1 [Compound 100],≤ 1000,≤ 30
C=CCn1c(=O)c2cnc(Nc3ccc(N4CCC(N)CC4)cc3)nc2n1-c1ccc(=O)n(C(C)C)n1 [Compound 101],1000 to 3000,≤ 30
C=CCn1c(=O)c2cnc(Nc3ccc(N4CCC(N)CC4)c(C)c3)nc2n1-c1ccc(=O)n(C(C)C)n1 [Compound 102],≤ 1000,≤ 30
C=CCn1c(=O)c2cnc(Nc3ccc(N4CCC(N)CC4)c(OC)c3)nc2n1-c1ccc(=O)n(C(C)C)n1 [Compound 103],≤ 1000,≤ 30
C=CCn1c(=O)c2cnc(Nc3ccc(N4CCC(NC)CC4)cc3)nc2n1-c1ccc(=O)n(C(C)C)n1 [Compound 104],≤ 1000,≤ 30
C=CCn1c(=O)c2cnc(Nc3ccc(N4CCC(NC)CC4)c(C)c3)nc2n1-c1ccc(=O)n(C(C)C)n1 [Compound 105],≤ 1000,≤ 30
C=CCn1c(=O)c2cnc(Nc3ccc(N4CCC(NC)CC4)c(OC)c3)nc2n1-c1ccc(=O)n(C(C)C)n1 [Compound 106],≤ 1000,≤ 30
C=CCn1c(=O)c2cnc(Nc3ccc(N4CCC(C)(N)CC4)cc3)nc2n1-c1ccc(=O)n(C(C)C)n1 [Compound 107],≤ 1000,≤ 30
